Measured values reported in ChEMBL document CHEMBL4321785, “Challenges and Opportunities for Therapeutics Targeting the Voltage-Gated Sodium Channel Isoform NaV1.7” (J Med Chem, 2019).
pIC50, pKd: −log10 of the molar value.

Assays:
[1] = molecular target: T1, Sodium channel protein type 2 subunit alpha (Homo sapiens, UniProt Q99250); test: Inhibition of human Nav1.2 expressed in HEK293 cells by electrophysiology assay; type: cell-based
[2] = molecular target: T2, Sodium channel protein type 4 subunit alpha (Homo sapiens, UniProt P35499); test: Inhibition of human Nav1.4 expressed in HEK293 cells by electrophysiology assay; type: cell-based
[3] = molecular target: T3, Sodium channel protein type 5 subunit alpha (Homo sapiens, UniProt Q14524); test: Inhibition of human Nav1.5 expressed in HEK293 cells by electrophysiology assay; type: cell-based
[4] = molecular target: T4, Sodium channel protein type 8 subunit alpha (Homo sapiens, UniProt Q9UQD0); test: Inhibition of human Nav1.6 expressed in HEK293 cells by electrophysiology assay; type: cell-based
[5] = molecular target: Sodium channel protein type 10 subunit alpha (Homo sapiens, UniProt Q9Y5Y9); test: Inhibition of human Nav1.8 expressed in HEK293 cells by electrophysiology assay; type: cell-based
[6] = molecular target: T5, Sodium channel protein type 1 subunit alpha (Homo sapiens, UniProt P35498); test: Inhibition of human Nav1.1 expressed in HEK293 cells by electrophysiology assay; type: cell-based
[7] = molecular target: T6, Sodium channel protein type 3 subunit alpha (Homo sapiens, UniProt Q9NY46); test: Inhibition of human Nav1.3 expressed in HEK293 cells by electrophysiology assay; type: cell-based
[8] = system: Rattus norvegicus; test: Analgesic activity in iv dosed rat model of CFA-induced pain; type: functional
[9] = system: Rattus norvegicus; test: Analgesic activity in it dosed rat model of CFA-induced pain; type: functional
[10] = system: Rattus norvegicus; test: Analgesic activity in it dosed rat model of formalin-induced pain; type: functional
[11] = system: Rattus norvegicus; test: Analgesic activity in it dosed rat model of CFA-induced pain by Hargreaves test; type: functional
[12] = molecular target: Sodium channel protein type 9 subunit alpha (Rattus norvegicus, UniProt O08562); test: Inhibition of rat Nav1.7 expressed in HEK293 cells by electrophysiology assay; type: cell-based
[13] = molecular target: T2, Sodium channel protein type 4 subunit alpha; test: Binding affinity to human recombinant Nav1.4 by radioligand binding assay
[14] = molecular target: T3, Sodium channel protein type 5 subunit alpha; test: Binding affinity to human recombinant Nav1.5 by radioligand binding assay
[15] = Unbound fraction in mouse plasma; type: ADME, cell-free
[16] = Ratio of unbound plasma concentration in mouse model of inherited erythromelalgia to Kd for binding affinity to recombinant human Nav1.7 by radioligand binding assay; type: ADME; conditions: in vivo
[17] = Ratio of unbound plasma concentration in mouse model of formalin-induced pain to Kd for binding affinity to mouse Nav1.7 by radioligand binding assay; type: ADME; conditions: in vivo
[18] = Ratio of unbound plasma concentration in mouse model of CFA-induced cold allodynia to Kd for binding affinity to mouse Nav1.7 by radioligand binding assay; type: ADME; conditions: in vivo
[19] = Ratio of unbound plasma concentration in mouse model of SNI-induced pain to Kd for binding affinity to mouse Nav1.7 by radioligand binding assay; type: ADME; conditions: in vivo
[20] = Ratio of unbound plasma concentration in mouse model of STZ-induced pain measured on day 1 to Kd for binding affinity to mouse Nav1.7 by radioligand binding assay; type: ADME; conditions: in vivo
[21] = molecular target: Sodium channel protein type 9 subunit alpha (Mus musculus, UniProt Q62205); test: Binding affinity to mouse Nav1.7 by radioligand binding assay
[22] = molecular target: T5, Sodium channel protein type 1 subunit alpha; test: Binding affinity to human recombinant Nav1.1 by radioligand binding assay
[23] = molecular target: T1, Sodium channel protein type 2 subunit alpha; test: Binding affinity to human recombinant Nav1.2 by radioligand binding assay
[24] = molecular target: T6, Sodium channel protein type 3 subunit alpha; test: Binding affinity to human recombinant Nav1.3 by radioligand binding assay
[25] = molecular target: T4, Sodium channel protein type 8 subunit alpha; test: Binding affinity to human recombinant Nav1.6 by radioligand binding assay
[26] = molecular target: Sodium channel protein type 10 subunit alpha (Mus musculus, UniProt Q6QIY3); test: Binding affinity to mouse Nav1.8 […] by radioligand binding assay
[27] = species: Homo sapiens; test: Selectivity ratio of Kd for binding affinity to human recombinant Nav1.1 by radioligand binding assay to Kd for binding affinity to human recombinant Nav1.7 by radioligand binding assay
[28] = species: Homo sapiens; test: Selectivity ratio of Kd for binding affinity to human recombinant Nav1.2 by radioligand binding assay to Kd for binding affinity to human recombinant Nav1.7 by radioligand binding assay
[29] = species: Homo sapiens; test: Selectivity ratio of Kd for binding affinity to human recombinant Nav1.3 by radioligand binding assay to Kd for binding affinity to human recombinant Nav1.7 by radioligand binding assay
[30] = species: Homo sapiens; test: Selectivity ratio of Kd for binding affinity to human recombinant Nav1.4 by radioligand binding assay to Kd for binding affinity to human recombinant Nav1.7 by radioligand binding assay
[31] = species: Homo sapiens; test: Selectivity ratio of Kd for binding affinity to human recombinant Nav1.5 by radioligand binding assay to Kd for binding affinity to human recombinant Nav1.7 by radioligand binding assay
[32] = species: Homo sapiens; test: Selectivity ratio of Kd for binding affinity to human recombinant Nav1.6 by radioligand binding assay to Kd for binding affinity to human recombinant Nav1.7 by radioligand binding assay
[33] = Plasma concentration in mouse model of pain at 60 mg/kg, po during hot plate test; type: ADME, organism-based; conditions: in vivo
[34] = Plasma concentration in mouse model of pain at 60 mg/kg, po during tail immersion test; type: ADME, organism-based; conditions: in vivo
[35] = Plasma concentration in mouse model of pain at 60 mg/kg, po during Randall-Selitto test; type: ADME, organism-based; conditions: in vivo
[36] = Plasma concentration in mouse model of CFA-induced pain at 60 mg/kg, po during Hargreaves test; type: ADME, organism-based; conditions: in vivo
[37] = Plasma concentration in mouse model of capsaicin-induced pain at 60 mg/kg, po during von Frey test; type: ADME, organism-based; conditions: in vivo
[38] = Ratio of plasma concentration in mouse model of pain at 60 mg/kg, po during hot plate test to IC50 for inhibition of mouse Nav1.7 expressed in HEK293 cells by electrophysiology assay; type: organism-based; conditions: in vivo
[39] = Ratio of plasma concentration in mouse model of pain at 60 mg/kg, po during tail immersion test to IC50 for inhibition of mouse Nav1.7 expressed in HEK293 cells by electrophysiology assay; type: organism-based; conditions: in vivo
[40] = Ratio of plasma concentration in mouse model of pain at 60 mg/kg, po during Randall-Selitto test to IC50 for inhibition of mouse Nav1.7 expressed in HEK293 cells by electrophysiology assay; type: organism-based; conditions: in vivo
[41] = Ratio of plasma concentration in mouse model of CFA-induced pain at 60 mg/kg, po during Hargreaves test to IC50 for inhibition of mouse Nav1.7 expressed in HEK293 cells by electrophysiology assay; type: organism-based; conditions: in vivo
[42] = Ratio of plasma concentration in mouse model of capsaicin-induced pain at 60 mg/kg, po during von Frey test to IC50 for inhibition of mouse Nav1.7 expressed in HEK293 cells by electrophysiology assay; type: organism-based; conditions: in vivo

T1 sequence (Q99250 whole entry): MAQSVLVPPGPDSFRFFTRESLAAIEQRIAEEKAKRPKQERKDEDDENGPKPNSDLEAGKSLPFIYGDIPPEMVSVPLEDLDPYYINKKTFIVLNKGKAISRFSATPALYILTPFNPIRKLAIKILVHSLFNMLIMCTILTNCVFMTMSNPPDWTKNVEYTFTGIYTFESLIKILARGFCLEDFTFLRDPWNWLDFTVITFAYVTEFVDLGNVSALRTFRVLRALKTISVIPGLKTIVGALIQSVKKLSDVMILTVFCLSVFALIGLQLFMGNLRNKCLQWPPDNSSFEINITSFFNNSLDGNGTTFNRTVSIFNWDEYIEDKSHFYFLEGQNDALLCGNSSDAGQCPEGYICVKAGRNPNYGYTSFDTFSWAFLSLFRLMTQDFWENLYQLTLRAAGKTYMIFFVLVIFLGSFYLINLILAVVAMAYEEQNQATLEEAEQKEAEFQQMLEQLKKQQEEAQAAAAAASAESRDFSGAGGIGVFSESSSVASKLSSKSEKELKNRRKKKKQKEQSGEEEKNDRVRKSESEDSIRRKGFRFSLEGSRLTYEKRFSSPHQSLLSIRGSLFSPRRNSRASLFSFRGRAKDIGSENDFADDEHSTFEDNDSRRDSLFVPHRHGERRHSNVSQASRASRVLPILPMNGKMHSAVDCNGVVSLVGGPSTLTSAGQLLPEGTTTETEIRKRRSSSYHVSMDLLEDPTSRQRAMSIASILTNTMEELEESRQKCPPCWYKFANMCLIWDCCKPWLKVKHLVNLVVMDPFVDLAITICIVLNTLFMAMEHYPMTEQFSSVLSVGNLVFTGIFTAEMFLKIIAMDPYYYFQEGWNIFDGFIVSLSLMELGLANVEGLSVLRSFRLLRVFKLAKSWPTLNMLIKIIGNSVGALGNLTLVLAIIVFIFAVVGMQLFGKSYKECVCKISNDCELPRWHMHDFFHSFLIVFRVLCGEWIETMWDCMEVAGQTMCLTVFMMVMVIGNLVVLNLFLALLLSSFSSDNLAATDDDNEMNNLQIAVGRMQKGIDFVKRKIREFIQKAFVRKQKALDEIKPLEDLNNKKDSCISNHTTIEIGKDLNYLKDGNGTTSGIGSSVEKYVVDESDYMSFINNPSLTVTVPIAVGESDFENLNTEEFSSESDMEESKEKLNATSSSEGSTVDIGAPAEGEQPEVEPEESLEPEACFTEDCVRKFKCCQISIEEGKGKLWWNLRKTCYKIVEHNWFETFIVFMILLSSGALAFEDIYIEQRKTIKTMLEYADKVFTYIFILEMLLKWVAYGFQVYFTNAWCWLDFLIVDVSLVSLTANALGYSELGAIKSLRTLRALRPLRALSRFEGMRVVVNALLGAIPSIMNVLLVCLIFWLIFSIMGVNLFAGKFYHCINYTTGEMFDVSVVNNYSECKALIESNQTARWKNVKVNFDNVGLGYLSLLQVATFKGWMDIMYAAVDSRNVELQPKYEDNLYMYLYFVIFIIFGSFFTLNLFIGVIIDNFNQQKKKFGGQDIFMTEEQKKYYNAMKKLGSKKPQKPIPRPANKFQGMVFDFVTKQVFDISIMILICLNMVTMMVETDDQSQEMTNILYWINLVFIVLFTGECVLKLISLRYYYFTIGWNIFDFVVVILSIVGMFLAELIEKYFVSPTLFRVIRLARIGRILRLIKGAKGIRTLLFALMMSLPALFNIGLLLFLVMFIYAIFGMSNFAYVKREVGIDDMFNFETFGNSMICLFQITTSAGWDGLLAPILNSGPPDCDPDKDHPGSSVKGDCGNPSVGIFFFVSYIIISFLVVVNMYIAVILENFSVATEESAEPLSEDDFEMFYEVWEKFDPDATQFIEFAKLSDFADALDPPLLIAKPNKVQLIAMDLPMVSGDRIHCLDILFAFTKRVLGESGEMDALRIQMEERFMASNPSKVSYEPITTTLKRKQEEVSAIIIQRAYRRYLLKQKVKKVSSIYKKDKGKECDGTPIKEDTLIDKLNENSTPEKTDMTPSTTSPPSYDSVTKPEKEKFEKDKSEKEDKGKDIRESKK
T4 sequence (Q9UQD0 whole entry): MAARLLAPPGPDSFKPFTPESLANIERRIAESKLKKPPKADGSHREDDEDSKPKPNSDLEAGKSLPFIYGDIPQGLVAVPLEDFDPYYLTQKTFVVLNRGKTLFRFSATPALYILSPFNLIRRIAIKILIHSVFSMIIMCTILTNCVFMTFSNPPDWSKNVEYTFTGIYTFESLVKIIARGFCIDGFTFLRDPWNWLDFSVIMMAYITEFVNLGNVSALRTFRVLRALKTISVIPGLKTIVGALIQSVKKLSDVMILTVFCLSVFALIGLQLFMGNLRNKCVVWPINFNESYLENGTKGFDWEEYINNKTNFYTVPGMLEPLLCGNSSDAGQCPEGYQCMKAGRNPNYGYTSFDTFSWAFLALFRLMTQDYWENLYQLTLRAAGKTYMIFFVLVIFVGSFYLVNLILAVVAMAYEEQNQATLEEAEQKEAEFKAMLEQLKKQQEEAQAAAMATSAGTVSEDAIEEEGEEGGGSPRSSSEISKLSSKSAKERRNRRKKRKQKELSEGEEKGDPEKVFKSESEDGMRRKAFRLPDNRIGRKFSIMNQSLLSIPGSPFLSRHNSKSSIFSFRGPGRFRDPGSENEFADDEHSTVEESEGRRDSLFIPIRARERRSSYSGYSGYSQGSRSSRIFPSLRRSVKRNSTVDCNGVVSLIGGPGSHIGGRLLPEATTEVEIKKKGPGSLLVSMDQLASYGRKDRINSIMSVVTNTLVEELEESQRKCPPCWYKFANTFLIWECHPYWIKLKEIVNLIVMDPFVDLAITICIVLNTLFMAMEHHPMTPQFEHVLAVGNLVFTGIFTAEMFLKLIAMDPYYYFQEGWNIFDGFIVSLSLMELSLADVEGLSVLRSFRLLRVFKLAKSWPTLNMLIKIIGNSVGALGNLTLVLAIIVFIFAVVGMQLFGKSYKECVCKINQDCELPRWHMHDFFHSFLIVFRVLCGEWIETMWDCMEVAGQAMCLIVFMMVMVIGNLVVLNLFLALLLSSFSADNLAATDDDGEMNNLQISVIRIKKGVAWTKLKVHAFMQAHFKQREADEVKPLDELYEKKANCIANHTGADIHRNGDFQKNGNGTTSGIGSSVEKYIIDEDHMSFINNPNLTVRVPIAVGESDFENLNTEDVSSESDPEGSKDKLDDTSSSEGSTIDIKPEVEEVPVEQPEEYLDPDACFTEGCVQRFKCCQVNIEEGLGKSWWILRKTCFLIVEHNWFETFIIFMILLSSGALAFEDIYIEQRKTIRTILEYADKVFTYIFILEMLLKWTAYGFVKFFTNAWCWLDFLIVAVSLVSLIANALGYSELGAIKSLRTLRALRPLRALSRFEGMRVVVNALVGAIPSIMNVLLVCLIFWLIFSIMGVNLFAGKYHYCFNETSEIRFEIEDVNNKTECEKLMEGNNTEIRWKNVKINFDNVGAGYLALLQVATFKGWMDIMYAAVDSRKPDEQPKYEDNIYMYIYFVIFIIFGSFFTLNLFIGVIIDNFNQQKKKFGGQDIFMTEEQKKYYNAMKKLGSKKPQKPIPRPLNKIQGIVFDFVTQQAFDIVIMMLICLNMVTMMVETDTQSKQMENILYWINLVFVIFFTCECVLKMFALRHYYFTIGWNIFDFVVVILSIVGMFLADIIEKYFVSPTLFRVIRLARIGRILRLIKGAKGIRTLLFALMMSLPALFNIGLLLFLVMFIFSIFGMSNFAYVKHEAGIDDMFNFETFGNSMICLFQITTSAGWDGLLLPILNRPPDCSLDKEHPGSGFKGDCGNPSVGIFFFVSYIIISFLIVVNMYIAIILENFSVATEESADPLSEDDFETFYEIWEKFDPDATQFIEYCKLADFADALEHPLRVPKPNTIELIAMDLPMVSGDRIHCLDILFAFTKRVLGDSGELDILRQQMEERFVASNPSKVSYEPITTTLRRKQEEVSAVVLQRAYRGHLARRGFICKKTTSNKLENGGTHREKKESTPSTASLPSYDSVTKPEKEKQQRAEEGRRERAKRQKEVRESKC

N#Cc1cc(S(=O)(=O)Nc2ncns2)ccc1Oc1ccc(-c2cccc(C(F)(F)F)c2)cc1-c1ccnc(CNCCC2CCNCC2)c1
pIC50 [1]: 8.52
pIC50 [2]: 5.82
pIC50 [3]: 5.59
pIC50 [4]: 8.24
pIC50 [5]: 4.59

CSCC[C@@H]1NC(=O)CNC(=O)[C@H](CCC(=O)O)NC(=O)[C@@H]2CSSC[C@H](NC(=O)[C@@H](N)Cc3ccc(O)cc3)C(=O)N[C@@H](CCC(N)=O)C(=O)N[C@@H](CCCCN)C(=O)N[C@@H](Cc3c[nH]c4ccccc34)C(=O)N[C@@H](CCSC)C(=O)N[C@@H](Cc3c[nH]c4ccccc34)C(=O)N[C@@H]([C@@H](C)O)C(=O)N[C@H]3CSSC[C@H](NC(=O)[C@H](C(C)C)NC1=O)C(=O)N[C@@H](CCCNC(=N)N)C(=O)N[C@@H](CC(C)C)C(=O)N[C@@H](Cc1c[nH]c4ccccc14)C(=O)N[C@H](C(=O)N[C@@H](CCCCN)C(=O)N[C@@H](CCCCN)C(=O)N[C@@H](CCCCN)C(=O)N[C@@H](CC(C)C)C(=O)N[C@@H](Cc1c[nH]c4ccccc14)C(=O)O)CSSC[C@H](NC(=O)[C@H](CCCCN)NC(=O)[C@H](CCCNC(=N)N)NC(=O)[C@H](CCC(=O)O)NC(=O)[C@H](CO)NC(=O)[C@H](CC(=O)O)NC3=O)C(=O)N2
pIC50 [6]: 7.80
pIC50 [1]: 7.10
pIC50 [7]: 7.60
pIC50 [2]: 7.10
pIC50 [3]: 6.40
pIC50 [4]: 7.49
ED [8]: 0.1 mg/kg
ED [9]: 0.01 mg/kg
ED [10]: 2 µg
ED [11]: 2 µg

CSCC[C@@H]1NC(=O)[C@H](Cc2ccc(O)cc2)NC(=O)[C@H](CCCNC(=N)N)NC(=O)[C@@H](NC(=O)[C@@H](N)CC(=O)O)CSSC[C@@H]2NC(=O)[C@@H]3CSSC[C@@H](C(=O)N[C@@H](C)C(=O)N[C@@H](Cc4c[nH]c5ccccc45)C(=O)N[C@@H](CC(=O)O)C(=O)N[C@@H](Cc4ccccc4)C(=O)N[C@H](C(=O)N[C@@H](Cc4ccccc4)C(=O)N[C@H](C(=O)O)[C@@H](C)O)[C@@H](C)O)NC(=O)[C@H](Cc4ccc(O)cc4)NC(=O)[C@H](CCCCN)NC(=O)[C@H](CCSC)NC(=O)[C@H](CCCCN)NC(=O)[C@H](CCCNC(=N)N)NC(=O)[C@H](CCCCN)NC(=O)[C@H](CSSC[C@H](NC(=O)[C@H](CC(=O)O)NC(=O)CNC(=O)[C@H](Cc4ccccc4)NC1=O)C(=O)N[C@@H](CCC(=O)O)C(=O)N[C@@H](CCCCN)C(=O)N[C@@H](CC(=O)O)C(=O)N[C@@H](CCC(=O)O)C(=O)N[C@@H](CC(=O)O)C(=O)N3)NC(=O)CNC(=O)[C@H](CC(C)C)NC(=O)[C@H](Cc1cnc[nH]1)NC(=O)[C@H](CCCCN)NC2=O
pIC50 [1]: 6.92
pIC50 [2]: 6.85
pIC50 [12]: 8.82

Cc1nn([C@@H]2CCN([C@H](C)c3cc(Cl)cc(Cl)c3)C2)c2cc(F)c(C(=O)NS(=O)(=O)C3CC3)cc12
pKd [13]: 7.33
pKd [14]: 6.34
fraction unbound [15]: 0.007
Ratio [16]: 2.3
Ratio [17]: 3.3
Ratio [18]: 6.2
Ratio [19]: 5.7
Ratio [20]: 5
pKd [21]: 7.85
pKd [22]: 6.85
pKd [23]: 6.85
pKd [24]: 6.96
pKd [25]: 6.21
pKd [26]: 4.66
Ratio Ki [27]: 6.4
Ratio Ki [28]: 6.4
Ratio Ki [29]: 5
Ratio Ki [30]: 2.1
Ratio Ki [31]: 21
Ratio Ki [32]: 28
concentration [33]: 49.3 µM
concentration [34]: 49.3 µM
concentration [35]: 49.3 µM
concentration [36]: 67.9 µM
concentration [37]: 31.1 µM
Ratio [38]: 25
Ratio [39]: 25
Ratio [40]: 25
Ratio [41]: 34
Ratio [42]: 16

O=C(NS(=O)(=O)N1CCC1)c1cc(C2CC2)c(OCC23CC4CC(CC(C4)C2)C3)cc1F
pIC50 [1]: 7.70
pIC50 [3]: 7.31
pIC50 [4]: 6.32
